{"source": "patent US20260344665A1", "about": "“FUNGICIDAL COMPOUND” (priority 2022, published 2026)", "key": {"[1]": {"test_system": "Puccinia recondita f. sp. tritici", "test": "Puccinia recondita f. sp. tritici / wheat / leaf disc preventative (brown rust)", "format": "in vivo", "settings": "for % reduction fungal growth: wheat, preventive", "procedure": "(§1) Leaf disks or leaf segments of various plant species were cut from plants grown in the greenhouse. The cut leaf discs or segments were placed in multiwell plates (24-well format) onto water agar. The leaf disks were sprayed with a test solution before (preventative) or after (curative) inoculation. Compounds to be tested were prepared as water solutions (max. 10 mg/ml) which were diluted to the appropriate concentration with 0.025% Tween20 just before spraying. The inoculated leaf discs or segments were incubated under defined conditions (temperature, relative humidity, light, etc.) according to the respective test system. A single evaluation of disease level was carried out 3-9 days days after inoculation, depending on the pathosystem. Percent disease control relative to the untreated check leaf discs or segments was then calculated.\nPuccinia recondita f. sp. tritici/Wheat/Leaf Disc Preventative (Brown Rust)\nWheat leaf segments cv. Kanzler were placed on agar in multiwell plates (24-well format) and sprayed with the formulated test compound diluted in water. The leaf disks were inoculated with a spore suspension of the fungus 1 day after application. The inoculated leaf segments were incubated at 19 °C and 75% rh under a light regime of 12 h light/12 h darkness in a climate cabinet and the activity of a compound was assessed as percent disease control compared to untreated leaf when an appropriate level of disease damage appeared in untreated check leaf segments (7-9 days after application)."}, "[2]": {"test_system": "Puccinia recondita f. sp. tritici", "test": "Puccinia recondita f. sp. tritici / wheat / leaf disc curative (brown rust)", "format": "in vivo", "settings": "for % reduction fungal growth: wheat", "procedure": "as §1\nPuccinia recondita f. sp. tritici/Wheat/Leaf Disc Curative (Brown Rust)\nWheat leaf segments cv. Kanzler were placed on agar in multiwell plates (24-well format). The leaf segments were inoculated with a spore suspension of the fungus. Plates were stored in darkness at 19 °C and 75% rh. The formulated test compound diluted in water was applied 1 day after inoculation. The leaf segments were incubated at 19 °C and 75% rh under a light regime of 12 h light/12 h darkness in a climate cabinet and the activity of a compound was assessed as percent disease control compared to untreated when an appropriate level of disease damage appeared in untreated check leaf segments (6-8 days after application)."}, "[3]": {"test_system": "Magnaporthe grisea", "format": "in vivo, Magnaporthe grisea (Pyricularia oryzae)", "settings": "rice, preventive"}, "[4]": {"test_system": "Puccinia recondita f. sp. tritici", "test": "Leaf painting assay in wheat seedling, Puccinia recondita preventive", "format": "in vivo", "procedure": "Wheat seedlings of the variety Riband (for Zymoseptoria tritici trials) or variety Arina (for Puccinia recondite trials) were grown in the glasshouse until 14d after seeding. At this time, such seedlings usually have a first leaf fully emerged (designated L1), a second leaf fully emerged (L2) and a third leaf (L3) that is partially emerged and in the process of development. Using a permanent pen, two dots were applied on the second leaf such as to generate three segments of roughly equal size: Segment A (at the base), segment B (middle part) and segment C (tip of the leaf). A stock solution of the compound of Formula (I) was produced in water and of benzovindiflupyr in DMSO at a concentration of 10,000 ppm. […] The diluted compound was applied to the middle segment of L2 using a conventional cotton stick; the cotton stick was soaked in the diluted compound and rubbed several times on the adaxial leaf surface between the two marks. One day later, the complete plant was inoculated with a fungal spore suspension using a paint brush. The spore suspension was applied until before run-off.\nFor infection with Puccinia recondita (preventive): The test plants were inoculated by spraying them with a spore suspension one day after application (spore suspension at 80,000 spores per ml in water supplemented with Tween20 at 0.1%). After an incubation period of 1 day at 20 °C and 95% rh, the inoculated test plants were kept at 20 °C and 60% rh in a greenhouse.\nThe three segments of the leaf were evaluated individually."}, "[5]": {"test_system": "Blumeria graminis f.sp. tritici", "test": "Powdery mildew assay in wheat (haustoria formation)", "format": "in vivo"}}, "note": "Where two headings read alike, the source gives them in different places."}
{"compound": "CC(=O)NC1C(OCC(OC2OC(CO)C(O)C(O)C2O)C2OC(OC3C(O)C(CO)OC(OC4(CO)OC(C(O)CO)C(O)C4OC4OC(CO)C(O)C(O)C4O)C3O)C(O)C(O)C2OC2OC(C(O)CO)C(O)C(O)C2OC2OCC(OC(N)=O)C(O)C2O)OC(CO)C(O)C1O", "note": "(stereo not drawn) [compound of Formula (I)]", "values": [{"measurement": "preventive activity to control Puccinia recondita", "setting": "[1]", "result": "preventive (application of compound followed by infection with pathogen)"}, {"measurement": "% reduction fungal growth", "setting": "[1]; 0.80 ppm", "result": 0, "unit": "%"}, {"measurement": "% reduction fungal growth", "setting": "[1]; 2.50 ppm", "result": 0, "unit": "%"}, {"measurement": "% reduction fungal growth", "setting": "[1]; 7.40 ppm", "result": 0, "unit": "%"}, {"measurement": "% reduction fungal growth", "setting": "[1]; 22.00 ppm", "result": 0, "unit": "%"}, {"measurement": "% reduction fungal growth", "setting": "[1]; 67.00 ppm", "result": 45, "unit": "%"}, {"measurement": "% reduction fungal growth", "setting": "[1]; 200.00 ppm", "result": 95, "unit": "%"}, {"measurement": "curative activity to control Puccinia recondita", "setting": "[2]", "result": "curative (infection of pathogen followed by application of compound) activity"}, {"measurement": "% reduction fungal growth", "setting": "[2]; 0.80 ppm", "result": 0, "unit": "%"}, {"measurement": "% reduction fungal growth", "setting": "[2]; 2.50 ppm", "result": 0, "unit": "%"}, {"measurement": "% reduction fungal growth", "setting": "[2]; 7.40 ppm", "result": 0, "unit": "%"}, {"measurement": "% reduction fungal growth", "setting": "[2]; 22.00 ppm", "result": 90, "unit": "%"}, {"measurement": "% reduction fungal growth", "setting": "[2]; 67.00 ppm", "result": 100, "unit": "%"}, {"measurement": "% reduction fungal growth", "setting": "[2]; 200.00 ppm", "result": 100, "unit": "%"}, {"measurement": "% reduction fungal growth", "setting": "[3]; 0.80 ppm", "result": 0, "unit": "%"}, {"measurement": "% reduction fungal growth", "setting": "[3]; 2.50 ppm", "result": 0, "unit": "%"}, {"measurement": "% reduction fungal growth", "setting": "[3]; 7.40 ppm", "result": 0, "unit": "%"}, {"measurement": "% reduction fungal growth", "setting": "[3]; 22.00 ppm", "result": 60, "unit": "%"}, {"measurement": "% reduction fungal growth", "setting": "[3]; 67.00 ppm", "result": 70, "unit": "%"}, {"measurement": "% reduction fungal growth", "setting": "[3]; 200.00 ppm", "result": 100, "unit": "%"}, {"measurement": "% reduction fungal growth", "setting": "[4]; Experiment 1, 200.00 ppm, base segment, preventive", "result": 0, "unit": "%"}, {"measurement": "% reduction fungal growth", "setting": "[4]; Experiment 1, 200.00 ppm, middle segment (treated), preventive", "result": 48, "unit": "%"}, {"measurement": "% reduction fungal growth", "setting": "[4]; Experiment 1, 200.00 ppm, tip segment, preventive", "result": 31, "unit": "%"}, {"measurement": "% reduction fungal growth", "setting": "[4]; Experiment 2, 200.00 ppm, base segment, preventive", "result": 10, "unit": "%"}, {"measurement": "% reduction fungal growth", "setting": "[4]; Experiment 2, 200.00 ppm, middle segment (treated), preventive", "result": 79, "unit": "%"}, {"measurement": "% reduction fungal growth", "setting": "[4]; Experiment 2, 200.00 ppm, tip segment, preventive", "result": 38, "unit": "%"}, {"measurement": "% reduction fungal growth", "setting": "[4]; Experiment 3, 400.00 ppm, base segment, preventive", "result": 16, "unit": "%"}, {"measurement": "% reduction fungal growth", "setting": "[4]; Experiment 3, 400.00 ppm, middle segment (treated), preventive", "result": 98, "unit": "%"}, {"measurement": "% reduction fungal growth", "setting": "[4]; Experiment 3, 400.00 ppm, tip segment, preventive", "result": 99, "unit": "%"}, {"measurement": "% reduction fungal growth", "setting": "[4]; Experiment 4, 500.00 ppm, base segment, preventive", "result": 0, "unit": "%"}, {"measurement": "% reduction fungal growth", "setting": "[4]; Experiment 4, 500.00 ppm, middle segment (treated), preventive", "result": 69, "unit": "%"}, {"measurement": "% reduction fungal growth", "setting": "[4]; Experiment 4, 500.00 ppm, tip segment, preventive", "result": 82, "unit": "%"}, {"measurement": "activity against growth of fungus", "setting": "[4]; leaf painting, preventive", "result": "active against growth"}, {"measurement": "control on treated and above treated area", "setting": "[4]; middle segment treated", "result": "provided control on the treated area (middle segment) as well as the above treated area (tip)"}, {"measurement": "minimal effective concentration", "setting": "[5]; Blumeria graminis, 48 h, pre-treated wheat, read-out: concentration at which effect on haustoria formation is observed", "result": "≥ 25", "unit": "µM"}, {"measurement": "activity at 1 µM", "setting": "[5]; Blumeria graminis, 1 μM, 48 h after infecting, read-out: haustoria formation (% relative to control)", "result": 106, "unit": "%"}, {"measurement": "activity at 25 µM", "setting": "[5]; Blumeria graminis, 25 μM, 48 h after infecting, read-out: haustoria formation (% relative to control)", "result": 59.1, "unit": "%"}, {"measurement": "activity at 100 µM", "setting": "[5]; Blumeria graminis, 100 μM, 48 h after infecting, read-out: haustoria formation (% relative to control)", "result": 66.4, "unit": "%"}, {"measurement": "reduction of haustoria formation", "setting": "[5]; pre-treated wheat", "result": "reduction of haustoria formation"}]}
